According to article PMC10744391, “Sulfated Triterpene Glycosides from the Far Eastern Sea Cucumber Cucumaria djakonovi: Djakonoviosides C1, D1, E1, and F1; Cytotoxicity against Human Breast Cancer Cell Lines; Quantitative Structure–Activity Relationships” (Marine Drugs, 2023):
Entries after “also recorded” stand apart in the source; their conditions may differ. Structures can show the parent of a compound that is named as a salt. Where two headings read alike, the source gives them in different places.

Assays:
Type in all cases: cell-based
human erythrocytes = experiment: Hemolytic activity against human erythrocytes; conditions: for HC50: Erythrocyte, read-out: ED50, Erythrocytes (hemolytic activity); for hemolytic activity (in words): concentration range up to 50 µM
Procedure: Human blood (B(III) Rh+) was used to obtain erythrocytes by centrifuging 450× g three times for 5 min with phosphate-buffered saline (PBS) (pH 7.4) at 4 °C on centrifuge LABOFUGE 400R (Heraeus, Hanau, Germany). Ice-cold PBS (pH 7.4) was used for resuspension of erythrocytes residue to a final optical density of 1.5 at 700 nm, which was kept on ice. Then, 20 µL of tested compound solution or control—djakonovioside A1 [5]—were added to 180 µL of erythrocyte suspension in V-bottom 96-well plates and exposed for 1 h at 37 °C. Next, centrifugation at 900× g for 10 min on laboratory centrifuge LMC-3000 (Biosan, Riga, Latvia), led to layers’ separation, and 100 µL of supernatant was carefully decanted and transferred into new flat-plate each. The values of erythrocyte lysis were measured on microplate photometer Multiskan FC (Thermo Fisher Scientific, Waltham, MA, USA) at λ = 570 nm as hemoglobin concentration in supernatant. The effective dose, causing lysis of 50% erythrocytes (ED50), was calculated with SigmaPlot 14.0 software. All the experiments were carried out in triple repetitions, p ≤ 0.05.

in vitro = conditions: human
[1] = tested on: MCF-7 human breast cancer cell line; experiment: cells; conditions: for IC50: read-out: Cytotoxicity, IC50, MCF-7; for Selectivity Index (SI), MCF-7: ratio of IC50 for healthy (MCF-10A) and cancer cells
[2] = tested on: T-47D human breast cancer cell line; experiment: cells; conditions: for IC50: read-out: Cytotoxicity, IC50, T-47D; for Selectivity Index (SI), T-47D: ratio of IC50 for healthy (MCF-10A) and cancer cells
[3] = tested on: triple-negative MDA-MB-231 human breast cancer cell line; experiment: cells; conditions: for IC50: read-out: Cytotoxicity, IC50, MDA-MB-231; for Selectivity Index (SI), MDA-MB-231: ratio of IC50 for healthy (MCF-10A) and cancer cells
[4] = tested on: human breast cancer cell lines MCF-7, T-47D and MDA-MB-231; experiment: Cytotoxic activity (MTT assay), statements on the human breast cancer cell lines together; conditions: MCF-7, T-47D, MDA-MB-231; concentration range up to 50 µM
From the text: Human erythrocytes were purchased from the Station of Blood Transfusion, Vladivostok. Human mammary epithelial cell line MCF-10A CRL-10317, human breast cancer cell lines T-47D HTB-133, MCF-7 HTB-22, and MDA-MB-231 CRM-HTB-26 were received from ATCC (Manassas, VA, USA). Culturing conditions: medium of RPMI-1640 with 1% penicillin/streptomycin (Biolot, St. Petersburg, Russia) and 10% fetal bovine serum (FBS) (Biolot, St. Petersburg, Russia) for T-47D cell line; Minimum Essential Medium (MEM) with 1% penicillin/streptomycin sulfate (Biolot, St. Petersburg, Russia) and FBS (Biolot, St. Petersburg, Russia) to a final concentration of 10% for MCF-7 and MDA-MB-231 cells; DMEM/F12 medium with 10% FBS, 20 ng/mL EGF, […], 100 ng/mL cholera toxin, 10 μg/mL insulin, and 1% penicillin/streptomycin (Bioinnlabs, Russia) for MCF-10A cell line.
Methodology: to each well of 96-well plates, the cell suspension (180 µL) with solution (20 µL) of tested glycoside in the certain concentration was placed (MCF-10A, MCF-7, T-47D, and MDA-MB-231—7 × 10^3 cells per well) and incubated in the atmosphere with 5% CO2 at 37 °C for 24 h. The times of incubation of cucumarioside A2-5 (6) and djakonoviosides C1 (1) and E1 (3), at concentrations of 0.5–12.0 μM with T-47D, MCF-7, or MDA-MB-231 cells, were 24, 48, and 72 hrs. Then, the solutions of tested compounds with medium were replaced by 100 µL of fresh medium, and 10 µL of 3-(4,5-dimethylthiazol-2-yl)-2,5-diphenyltetrazolium bromide (MTT) (PanReac, AppliChem, Darmstadt, Germany) stock solution (5 mg/mL) was added to each well and incubated for 4 h, followed by the addition of 100 µL of SDS-HCl solution (1 g SDS/10 mL d-H2O/17 µL 6 N HCl) and further incubated for 18 h. Multiskan FC microplate photometer (Thermo Fisher Scientific, Waltham, MA, USA) was used to measure the absorbance of the converted dye formazan at 570 nm. The concentration caused 50% cell metabolic activity inhibition (IC50), which expresses the cytotoxic activity of each glycoside. The experiments were conducted in triplicate, p ≤ 0.05.

[5] = human erythrocytes, 1 h at 37 °C, dose causing lysis of 50% erythrocytes

Structure (SMILES) | HC50 (human erythrocytes; [5]) | IC50 at 24 h (in vitro) | IC50 ([1]; Homo sapiens, MCF7, 24 h) | Selectivity Index (SI), MCF-7 [1] | IC50 ([2]; Homo sapiens, T47D, 24 h) | Selectivity Index (SI), T-47D [2] | IC50 ([3]; Homo sapiens, MDA-MB-231, 24 h) | Selectivity Index (SI), MDA-MB-231 [3] | hemolytic activity (in words) (human erythrocytes; human erythrocytes) | further results
C=C(C)CCCC1(C)OC(=O)C23CCC4C(=CCC5C(C)(C)C(OC6OCC(OS(=O)(=O)O)C(O)C6OC6OC(CO)C(OC7OC(CO)C(O)C(OC8OC(CO)C(O)C(OC)C8O)C7O)C(O)C6OC6OCC(O)C(O)C6O)CCC45C)C2(C)CC(OC(C)=O)C13 (stereo not shown) [okhotoside A2-1] | 1.53 ± 0.14 µM | 12.2 ± 0.16 µM | 39.81 ± 0.18 µM | 0.31 | 11.9 ± 0.42 µM | 1.03 | 12.6 ± 0.16 µM | 0.97 |  | 
COC1C(O)C(COS(=O)(=O)O)OC(OC2C(O)C(COS(=O)(=O)O)OC(OC3C(C)OC(OC4C(OC5CCC6(C)C7CCC8(C)C(C(C)(O)C(=O)CC=C(C)C)CCC8(C)C7=CCC6C5(C)C)OCC(OS(=O)(=O)O)C4O)C(OC4OCC(O)C(O)C4O)C3O)C2O)C1O [djakonovioside F1, 3β-O-{6-O-sodium sulfate-3-O-methyl-β-D-glucopyranosyl-(1→3)-6-O-sodium sulfate-β-D-glucopyranosyl-(1→4)-[(1→2)-β-D-xylopyranosyl]-β-D-quinovopyranosyl-(1→2)-4-O-sodium sulfate-β-D-xylopyranosyl}-(20R)-hydroxy-22-oxo-lanosta-7,24-dien] |  | 23.2 ± 0.78 µM | 36.8 ± 0.73 µM | 0.63 | 22.5 ± 1.78 µM | 1.02 | 20 ± 0.63 µM | 1.16 | high hemolytic effect | HC50 (human erythrocytes; Homo sapiens, 1 h): 0.51 ± 0.01 µM
COC1C(O)C(CO)OC(OC2C(O)C(CO)OC(OC3C(C)OC(OC4C(OC5CCC6(C)C7CCC89C(=O)OC(C)(CC=CC(C)(C)O)C8C(OC(C)=O)CC9(C)C7=CCC6C5(C)C)OCC(OS(=O)(=O)O)C4O)C(OC4OCC(O)C(O)C4O)C3O)C2O)C1O (stereo not shown) [frondoside A2-3] | > 50 µM | > 50 µM | > 50 µM |  | > 50 µM |  | > 50 µM |  | absence of the activity | hemolytic activity (in words) (human erythrocytes; human erythrocytes, listed as Frondoside A2-3): did not show hemolytic or cytotoxic activity
C=C(C)CCCC1(C)OC(=O)C23CCC4C(=CCC5C(C)(C)C(OC6OCC(OS(=O)(=O)O)C(O)C6OC6OCC(OC7OC(CO)C(O)C(OC8OC(CO)C(O)C(OC)C8O)C7O)C(O)C6OC6OCC(O)C(O)C6O)CCC45C)C2(C)CC(OC(C)=O)C13 (stereo not shown) [djakonoviosides C1] |  |  |  |  |  |  |  |  | slightly lower but significant | 
COC1C(O)C(CO)OC(OC2C(O)C(CO)OC(OC3C(CO)OC(OC4C(OC5CCC6(C)C7CCC89C(=O)OC(C)(CCC=C(C)C)C8C(OC(C)=O)CC9(C)C7=CCC6C5(C)C)OCC(OS(=O)(=O)O)C4O)C(OC4OCC(O)C(O)C4O)C3O)C2O)C1O [djakonovioside D1, 3β-O-{3-O-methyl-β-D-glucopyranosyl-(1→3)-β-D-glucopyranosyl-(1→4)-[(1→2)-β-D-xylopyranosyl]-β-D-glucopyranosyl-(1→2)-4-O-sodium sulfate-β-D-xylopyranosyl}-16β-acetoxyholosta-7,24-dien] | 7.74 ± 0.37 µM | > 50 µM | > 50 µM |  | > 50 µM |  | > 50 µM |  |  | hemolytic activity (in words) (human erythrocytes; human erythrocytes, listed as D1): slightly lower but significant; hemolytic activity (in words) (human erythrocytes; human erythrocytes, listed as Djakonovioside D1): moderate hemolytic activity; also recorded: slightly less hemolytic
COC1C(O)C(CO)OC(OC2C(O)C(COS(=O)(=O)O)OC(OC3C(C)OC(OC4C(OC5CCC6(C)C7CCC8(C)C(C(C)=O)CCC8(C)C7=CCC6C5(C)C)OCC(OS(=O)(=O)O)C4O)C(OC4OCC(O)C(O)C4O)C3O)C2O)C1O (stereo not shown) [cucumarioside A3-2] | 17.9 ± 0.48 µM |  |  |  |  |  |  |  | moderate hemolytic activity; also recorded: low hemolytic activity | IC50 (in vitro; MTT, 24 h incubation, read-out: Cytotoxicity, IC50, MCF-10A): > 50 µM; IC50 ([1]; Homo sapiens, MCF7, MTT, 24 h incubation): > 50 µM; IC50 ([2]; Homo sapiens, T47D, MTT, 24 h incubation): > 50 µM; IC50 ([3]; Homo sapiens, MDA-MB-231, MTT, 24 h incubation): > 50 µM; cytotoxic activity against human tumor cell lines (in words) [4]: not active
CO[C@@H]1[C@@H](O)[C@H](O[C@@H]2[C@@H](O)[C@H](O[C@H]3[C@H](O)[C@@H](O)[C@H](O[C@H]4[C@H](O[C@H]5CC[C@]6(C)[C@@H]7CCC89C(=O)O[C@@](C)(C[C@@H](O)CC(C)C)[C@H]8[C@@H](OC(C)=O)C[C@@]9(C)C7=CC[C@H]6C5(C)C)OC[C@@H](OS(=O)(=O)O)[C@@H]4O)O[C@@H]3C)OC[C@H]2O)O[C@H](CO)[C@H]1O (stereo partly shown) [djakonovioside A1, reference compound] |  |  |  | 0.66 |  | 1.15 |  | 1.45 |  | ED50, Erythrocytes (hemolytic activity) (human erythrocytes; [5]): 2.52 ± 0.23 µM; IC50 ([1]; MTT, 24 h incubation): 26.43 ± 0.14 µM; IC50 ([2]; MTT, 24 h incubation): 15.2 ± 0.96 µM; IC50 ([3]; MTT, 24 h incubation): 12.1 ± 0.54 µM
COC1C(O)C(COS(=O)(=O)O)OC(OC2C(O)C(COS(=O)(=O)O)OC(OC3C(C)OC(OC4C(OC5CCC6(C)C7CCC8(C)C(C(C)=O)CCC8(C)C7=CCC6C5(C)C)OCC(OS(=O)(=O)O)C4O)C(OC4OCC(O)C(O)C4O)C3O)C2O)C1O (stereo not shown) [koreoside A] | > 50 µM | > 50 µM | > 50 µM |  | > 50 µM |  | > 50 µM |  | did not show hemolytic or cytotoxic activity; also recorded: complete loss of the activity | 
COC1C(O)C(COS(=O)(=O)O)OC(OC2C(O)C(COS(=O)(=O)O)OC(OC3C(C)OC(OC4C(OC5CCC6(C)C7=CCC8(C)C(C(C)=O)CCC8(C)C7CCC6C5(C)C)OCC(OS(=O)(=O)O)C4O)C(OC4OCC(O)C(O)C4O)C3O)C2O)C1O (stereo not shown) [isokoreoside A] | 17.4 ± 0.57 µM | > 50 µM | > 50 µM |  | > 50 µM |  | > 50 µM |  | moderate hemolytic activity; also recorded: low hemolytic activity | 
